Measurements: PubChem BioAssay (NCI)
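48-hour exposure; five concentrations; linearly interpolated endpoints. Definition used: TGI = concentration required for complete inhibition of growth.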

Tests used:
Test in all cases: NCI tumour cell line growth inhibition, 48 h
SW-620 colon = tested on: SW-620 colon
M14 melanoma = tested on: M14 melanoma
NCI-H23 lung = tested on: NCI-H23 lung
PC-3 prostate = tested on: PC-3 prostate
SK-MEL-28 melanoma = tested on: SK-MEL-28 melanoma
NCI/ADR-RES ovarian = tested on: NCI/ADR-RES ovarian
OVCAR-3 ovarian = tested on: OVCAR-3 ovarian
MCF7 breast = tested on: MCF7 breast
HS 578T breast = tested on: HS 578T breast
LOX IMVI melanoma = tested on: LOX IMVI melanoma
SK-OV-3 ovarian = tested on: SK-OV-3 ovarian
SK-MEL-5 melanoma = tested on: SK-MEL-5 melanoma
SR leukemia = tested on: SR leukemia
OVCAR-4 ovarian = tested on: OVCAR-4 ovarian
CAKI-1 renal = tested on: CAKI-1 renal
RPMI-8226 leukemia = tested on: RPMI-8226 leukemia
SK-MEL-2 melanoma = tested on: SK-MEL-2 melanoma
A549 NSCLC = tested on: A549 NSCLC
TK-10 renal = tested on: TK-10 renal
MDA-MB-231 breast = tested on: MDA-MB-231 breast
HCC-2998 colon = tested on: HCC-2998 colon
K-562 leukemia = tested on: K-562 leukemia
SF-295 CNS = tested on: SF-295 CNS
CCRF-CEM leukemia = tested on: CCRF-CEM leukemia
MALME-3M melanoma = tested on: MALME-3M melanoma
KM12 colon = tested on: KM12 colon
RXF 393 renal = tested on: RXF 393 renal
HT29 colon = tested on: HT29 colon
HCT-15 colon = tested on: HCT-15 colon
T-47D breast = tested on: T-47D breast
UACC-62 melanoma = tested on: UACC-62 melanoma
MDA-N = tested on: MDA-N
SNB-19 CNS = tested on: SNB-19 CNS
NCI-H522 lung = tested on: NCI-H522 lung
NCI-H460 lung = tested on: NCI-H460 lung
OVCAR-8 ovarian = tested on: OVCAR-8 ovarian
HOP-92 NSCLC = tested on: HOP-92 NSCLC
OVCAR-5 ovarian = tested on: OVCAR-5 ovarian
COLO 205 colon = tested on: COLO 205 colon
BT-549 breast = tested on: BT-549 breast
MDA-MB-435 = tested on: MDA-MB-435
UO-31 renal = tested on: UO-31 renal
ACHN renal = tested on: ACHN renal
NCI-H226 lung = tested on: NCI-H226 lung
UACC-257 melanoma = tested on: UACC-257 melanoma
HL-60(TB) leukemia = tested on: HL-60(TB) leukemia
786-0 renal = tested on: 786-0 renal
SNB-75 CNS = tested on: SNB-75 CNS
DU-145 prostate = tested on: DU-145 prostate
SF-268 CNS = tested on: SF-268 CNS
EKVX NSCLC = tested on: EKVX NSCLC
IGROV1 ovarian = tested on: IGROV1 ovarian
HCT-116 colon = tested on: HCT-116 colon
MOLT-4 leukemia = tested on: MOLT-4 leukemia
HOP-62 NSCLC = tested on: HOP-62 NSCLC
SF-539 CNS = tested on: SF-539 CNS
U251 CNS = tested on: U251 CNS
SN12C renal = tested on: SN12C renal

COC(=O)C(C)(Cc1ccc2c(c1)nnn2C(C)=O)NC(C)=O (stereo not drawn)
TGI (SW-620 colon): > 100 µM
TGI (M14 melanoma): > 100 µM
TGI (NCI-H23 lung): > 100 µM
TGI (PC-3 prostate): > 100 µM
TGI (SK-MEL-28 melanoma): > 100 µM
TGI (NCI/ADR-RES ovarian): > 100 µM
TGI (OVCAR-3 ovarian): > 100 µM
TGI (MCF7 breast): > 100 µM
TGI (HS 578T breast): > 100 µM
TGI (LOX IMVI melanoma): > 100 µM
TGI (SK-OV-3 ovarian): > 100 µM
TGI (SK-MEL-5 melanoma): > 100 µM
TGI (SR leukemia): > 100 µM
TGI (OVCAR-4 ovarian): > 100 µM
TGI (CAKI-1 renal): > 100 µM
TGI (RPMI-8226 leukemia): > 100 µM
TGI (SK-MEL-2 melanoma): > 100 µM
TGI (A549 NSCLC): > 100 µM
TGI (TK-10 renal): > 100 µM
TGI (MDA-MB-231 breast): > 100 µM
TGI (HCC-2998 colon): > 100 µM
TGI (K-562 leukemia): > 100 µM
TGI (SF-295 CNS): > 100 µM
TGI (CCRF-CEM leukemia): > 100 µM
TGI (MALME-3M melanoma): > 100 µM
TGI (KM12 colon): > 100 µM
TGI (RXF 393 renal): > 100 µM
TGI (HT29 colon): > 100 µM
TGI (HCT-15 colon): > 100 µM
TGI (T-47D breast): > 100 µM
TGI (UACC-62 melanoma): > 100 µM
TGI (MDA-N): > 100 µM
TGI (SNB-19 CNS): > 100 µM
TGI (NCI-H522 lung): > 100 µM
TGI (NCI-H460 lung): > 100 µM
TGI (OVCAR-8 ovarian): > 100 µM
TGI (HOP-92 NSCLC): > 100 µM
TGI (OVCAR-5 ovarian): > 100 µM
TGI (COLO 205 colon): > 100 µM
TGI (BT-549 breast): > 100 µM
TGI (MDA-MB-435): > 100 µM
TGI (UO-31 renal): > 100 µM
TGI (ACHN renal): > 100 µM
TGI (NCI-H226 lung): > 100 µM
TGI (UACC-257 melanoma): > 100 µM
TGI (HL-60(TB) leukemia): > 100 µM
TGI (786-0 renal): > 100 µM
TGI (SNB-75 CNS): > 100 µM
TGI (DU-145 prostate): > 100 µM
TGI (SF-268 CNS): > 100 µM
TGI (EKVX NSCLC): > 100 µM
TGI (IGROV1 ovarian): > 100 µM
TGI (HCT-116 colon): > 100 µM
TGI (MOLT-4 leukemia): > 100 µM

CC(C)OP(=O)(CCCCCCCCC/C=C/c1ccc2c(c1)OCCOCCOCCOCCO2)OC(C)C
TGI (SW-620 colon): 14.7 µM
TGI (M14 melanoma): 13.5 µM
TGI (NCI-H23 lung): 8.21 µM
TGI (PC-3 prostate): 9.51 µM
TGI (SK-MEL-28 melanoma): 20.1 µM
TGI (NCI/ADR-RES ovarian): 10.5 µM
TGI (OVCAR-3 ovarian): 10 µM
TGI (MCF7 breast): 11.2 µM
TGI (HS 578T breast): 9.02 µM
TGI (LOX IMVI melanoma): 4.93 µM
TGI (SK-OV-3 ovarian): 9.19 µM
TGI (SK-MEL-5 melanoma): 7.76 µM
TGI (SR leukemia): 15.4 µM
TGI (OVCAR-4 ovarian): 16.2 µM
TGI (CAKI-1 renal): 11.7 µM
TGI (RPMI-8226 leukemia): > 100 µM
TGI (HOP-62 NSCLC): 6.15 µM
TGI (SK-MEL-2 melanoma): 8.69 µM
TGI (SF-539 CNS): 12.4 µM
TGI (A549 NSCLC): 13.6 µM
TGI (TK-10 renal): 21.4 µM
TGI (MDA-MB-231 breast): 12.6 µM
TGI (HCC-2998 colon): 14.2 µM
TGI (K-562 leukemia): 24.1 µM
TGI (SF-295 CNS): 10.3 µM
TGI (U251 CNS): 7.74 µM
TGI (CCRF-CEM leukemia): 7.5 µM
TGI (MALME-3M melanoma): 13.7 µM
TGI (KM12 colon): 11 µM
TGI (RXF 393 renal): 9.12 µM
TGI (HT29 colon): 11 µM
TGI (HCT-15 colon): 10.3 µM
TGI (T-47D breast): 9.11 µM
TGI (UACC-62 melanoma): 14.8 µM
TGI (MDA-N): 13.5 µM
TGI (SNB-19 CNS): 15.2 µM
TGI (NCI-H522 lung): 10.1 µM
TGI (NCI-H460 lung): 7.37 µM
TGI (OVCAR-8 ovarian): 12.1 µM
TGI (HOP-92 NSCLC): 5.8 µM
TGI (OVCAR-5 ovarian): 11.4 µM
TGI (COLO 205 colon): 3.89 µM
TGI (SN12C renal): 14.2 µM
TGI (BT-549 breast): 9.09 µM
TGI (MDA-MB-435): 13.6 µM
TGI (UO-31 renal): 9.02 µM
TGI (ACHN renal): 11.8 µM
TGI (NCI-H226 lung): 9.24 µM
TGI (UACC-257 melanoma): 10.2 µM
TGI (HL-60(TB) leukemia): 30.7 µM
TGI (786-0 renal): 14.1 µM
TGI (SNB-75 CNS): 10.4 µM
TGI (DU-145 prostate): 15.2 µM
TGI (SF-268 CNS): 16.8 µM
TGI (EKVX NSCLC): 11.8 µM
TGI (IGROV1 ovarian): 16.2 µM
TGI (HCT-116 colon): 11.2 µM
TGI (MOLT-4 leukemia): 10.7 µM

CC(=O)OCC1OC(NC(=S)CCSc2nc3ccccc3c(=O)n2-c2ccccc2)C(OC(C)=O)C(OC(C)=O)C1OC(C)=O (stereo not drawn)
TGI (SW-620 colon): > 100 µM
TGI (M14 melanoma): > 100 µM
TGI (NCI-H23 lung): > 100 µM
TGI (PC-3 prostate): > 100 µM
TGI (SK-MEL-28 melanoma): > 100 µM
TGI (NCI/ADR-RES ovarian): > 100 µM
TGI (OVCAR-3 ovarian): > 100 µM
TGI (MCF7 breast): > 100 µM
TGI (HS 578T breast): > 100 µM
TGI (LOX IMVI melanoma): > 100 µM
TGI (SK-OV-3 ovarian): > 100 µM
TGI (SK-MEL-5 melanoma): > 100 µM
TGI (SR leukemia): > 100 µM
TGI (CAKI-1 renal): > 100 µM
TGI (RPMI-8226 leukemia): > 100 µM
TGI (HOP-62 NSCLC): > 100 µM
TGI (SK-MEL-2 melanoma): 76.3 µM
TGI (SF-539 CNS): 34 µM
TGI (A549 NSCLC): > 100 µM
TGI (MDA-MB-231 breast): > 100 µM
TGI (HCC-2998 colon): > 100 µM
TGI (K-562 leukemia): > 100 µM
TGI (SF-295 CNS): > 100 µM
TGI (U251 CNS): > 100 µM
TGI (CCRF-CEM leukemia): > 100 µM
TGI (MALME-3M melanoma): > 100 µM
TGI (KM12 colon): > 100 µM
TGI (RXF 393 renal): 58.2 µM
TGI (HT29 colon): > 100 µM
TGI (HCT-15 colon): > 100 µM
TGI (T-47D breast): > 100 µM
TGI (UACC-62 melanoma): > 100 µM
TGI (MDA-N): > 100 µM
TGI (SNB-19 CNS): > 100 µM
TGI (NCI-H522 lung): > 100 µM
TGI (NCI-H460 lung): > 100 µM
TGI (OVCAR-8 ovarian): > 100 µM
TGI (HOP-92 NSCLC): 98.1 µM
TGI (OVCAR-5 ovarian): > 100 µM
TGI (COLO 205 colon): > 100 µM
TGI (SN12C renal): > 100 µM
TGI (BT-549 breast): > 100 µM
TGI (MDA-MB-435): > 100 µM
TGI (UO-31 renal): > 100 µM
TGI (ACHN renal): > 100 µM
TGI (NCI-H226 lung): > 100 µM
TGI (UACC-257 melanoma): > 100 µM
TGI (HL-60(TB) leukemia): 88.1 µM
TGI (786-0 renal): > 100 µM
TGI (SNB-75 CNS): 60.7 µM
TGI (DU-145 prostate): > 100 µM
TGI (SF-268 CNS): > 100 µM
TGI (EKVX NSCLC): > 100 µM
TGI (IGROV1 ovarian): 25.1 µM
TGI (HCT-116 colon): > 100 µM
TGI (MOLT-4 leukemia): > 100 µM
